Measurements reported in the supplement of paper PMC4862054.
Where “and” joins values, the source holds several entries; their conditions need not be identical. Equal values may be shown once.

Assays:
Assay in all cases: normalised viability (% of control), CellTiter-Blue; higher = more viable cells (about 100 = DMSO control)
Conditions in all cases: incubation time: 72 h
CAL-148 [1] = system: CAL-148
Description: (§1)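 DSRT, CellTiter-Blue viability, 72 h incubation. Signal is normalised to DMSO and benzethonium chloride controls. Value is the normalised response at dose 8.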

HDQ-P1 [2] = system: HDQ-P1
Description: as §1

DU-4475 [3] = system: DU-4475
Description: as §1

CAL-85-1 [4] = system: CAL-85-1
Description: as §1

MDA-MB-453 [5] = system: MDA-MB-453
Description: as §1

CAL-51 [6] = system: CAL-51
Description: as §1

CAL-148 [7] = system: CAL-148; remark: listed apart in the source
Description: (§2)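 DSRT, CellTiter-Blue viability, 72 h incubation. Signal is normalised to DMSO and benzethonium chloride controls. Value is the normalised response at dose 6.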

HDQ-P1 [8] = system: HDQ-P1; remark: listed apart in the source
Description: as §2

DU-4475 [9] = system: DU-4475; remark: listed apart in the source
Description: as §2

CAL-85-1 [10] = system: CAL-85-1; remark: listed apart in the source
Description: as §2

MDA-MB-453 [11] = system: MDA-MB-453; remark: listed apart in the source
Description: as §2

CAL-51 [12] = system: CAL-51; remark: listed apart in the source
Description: as §2

Compound	normalised viability (CAL-148 [1])	normalised viability (HDQ-P1 [2])	normalised viability (DU-4475 [3])	normalised viability (CAL-85-1 [4])	normalised viability (MDA-MB-453 [5])	normalised viability (CAL-51 [6])	normalised viability (CAL-148 [7])	normalised viability (HDQ-P1 [8])	normalised viability (DU-4475 [9])	normalised viability (CAL-85-1 [10])	normalised viability (MDA-MB-453 [11])	normalised viability (CAL-51 [12])
CC(C)(C)NC(=O)[C@H]1CC[C@H]2[C@@H]3CC[C@H]4NC(=O)C=C[C@]4(C)[C@H]3CC[C@]12C [Finasteride] (3000 nM)	96.4%	127%	97%	92.2%	114%	104%	–	–	–	–	–	–
COc1cc(Nc2c(C#N)cnc3cc(OCCCN4CCN(C)CC4)c(OC)cc23)c(Cl)cc1Cl [Bosutinib] (3000 nM)	39.8%	44.2%	98.6%	54.3%	50.1%	80.3%	–	–	–	–	–	–
Cn1cc(C2=C(c3cn(C4CCN(Cc5ccccn5)CC4)c4ccccc34)C(=O)NC2=O)c2ccccc21 [Enzastaurin] (3000 nM)	69%	89.8%	87.3%	85%	53.6%	88.6%	–	–	–	–	–	–
Nc1ccn([C@@H]2O[C@H](CO)[C@@H](O)C2(F)F)c(=O)n1 [Gemcitabine] (300 nM)	34.9%	82.1%	39.8%	43.2%	44.1%	15.7%	–	–	–	–	–	–
Cc1cc(Nc2nc(N[C@@H](C)c3ncc(F)cn3)ncc2Cl)[nH]n1 [AZD1480] (300 nM)	106%	122%	89.3%	106%	94.2%	98.8%	–	–	–	–	–	–
CNC(=O)c1ccccc1Sc1ccc2c(/C=C/c3ccccn3)n[nH]c2c1 [Axitinib] (3000 nM)	46%	64.8%	33.9%	65.5%	55.4%	40.2%	–	–	–	–	–	–
CC(=O)[C@]1(O)Cc2c(O)c3c(c(O)c2[C@@H](O[C@H]2C[C@H](N)[C@H](O)[C@H](C)O2)C1)C(=O)c1ccccc1C3=O [Idarubicin] (300 nM)	7.71%	48.7%	7.47%	47.1%	68.7%	20.9%	–	–	–	–	–	–
CN(Cc1cnc2nc(N)nc(N)c2n1)c1ccc(C(=O)N[C@@H](CCC(=O)O)C(=O)O)cc1 [Methotrexate] (3000 nM)	56.3%	82.7%	101%	57.7%	91.4%	39.6%	–	–	–	–	–	–
CCNC(=O)CCC/C=C\C[C@@H]1[C@@H](/C=C/[C@@H](O)CCc2ccccc2)[C@H](O)C[C@@H]1O [Bimatoprost] (1650 nM)	91.1%	97.4%	120%	102%	92.4%	111%	–	–	–	–	–	–
CC(O)(CS(=O)(=O)c1ccc(F)cc1)C(=O)Nc1ccc(C#N)c(C(F)(F)F)c1 (stereo not given) [Bicalutamide] (3000 nM)	103%	96.8%	103%	101%	114%	120%	–	–	–	–	–	–
C=CCn1c(=O)c2cnc(Nc3ccc(N4CCN(C)CC4)cc3)nc2n1-c1cccc(C(C)(C)O)n1 [MK1775] (3000 nM)	6.03%	27.3%	2.03%	19.2%	19.3%	7.19%	–	–	–	–	–	–
Cc1cc(Nc2nc(N[C@@H](C)c3ncc(F)cn3)ncc2Cl)[nH]n1 [AZD1480] (30 nM)	–	–	–	–	–	–	103%	78.1%	109%	91.3%	117%	113%
CCNC(=O)c1noc(-c2cc(C(C)C)c(O)cc2O)c1-c1ccc(CN2CCOCC2)cc1 [NVP-AUY922] (300 nM)	16.3%	30.4%	0.62%	24.6%	8.88%	8.64%	–	–	–	–	–	–
CCNC(=O)CCC/C=C\C[C@@H]1[C@@H](/C=C/[C@@H](O)CCc2ccccc2)[C@H](O)C[C@@H]1O [Bimatoprost] (165 nM)	–	–	–	–	–	–	94.6%	81.4%	97.6%	96.4%	102%	116%
CO[C@@]12[C@H](COC(N)=O)C3=C(C(=O)C(C)=C(N)C3=O)N1C[C@@H]1N[C@@H]12 [Mitomycin C] (3000 nM)	48.5%	85.2%	91.5%	71.6%	58.8%	102%	–	–	–	–	–	–
CC1(C)CCC(c2ccc(Cl)cc2)=C(CN2CCN(c3ccc(C(=O)NS(=O)(=O)c4ccc(N[C@H](CCN5CCOCC5)CSc5ccccc5)c(S(=O)(=O)C(F)(F)F)c4)cc3)CC2)C1 [Navitoclax] (3000 nM)	71%	43.5%	20.1%	87.8%	70.3%	95.3%	–	–	–	–	–	–
CC[C@H](CO)Nc1nc(NCc2ccccc2)c2ncn(C(C)C)c2n1 [Roscovitine] (300 nM)	–	–	–	–	–	–	88.6%	59.7%	97.5%	93.7%	86.9%	104%
CC(C)C[C@H](NC(=O)[C@@H](COC(C)(C)C)NC(=O)[C@H](Cc1ccc(O)cc1)NC(=O)[C@H](CO)NC(=O)[C@H](Cc1c[nH]c2ccccc12)NC(=O)[C@H](Cc1cnc[nH]1)NC(=O)[C@@H]1CCC(=O)N1)C(=O)N[C@@H](CCCNC(=N)N)C(=O)N1CCC[C@H]1C(=O)NNC(N)=O [Goserelin] (3000 nM)	99.8%	106%	92.5%	103%	122%	108%	–	–	–	–	–	–

Compound	normalised viability (CAL-148 [1])	normalised viability (HDQ-P1 [2])	normalised viability (DU-4475 [3])	normalised viability (CAL-85-1 [4])	normalised viability (MDA-MB-453 [5])	normalised viability (CAL-51 [6])	normalised viability (CAL-148 [7])	normalised viability (HDQ-P1 [8])	normalised viability (DU-4475 [9])	normalised viability (CAL-85-1 [10])	normalised viability (MDA-MB-453 [11])	normalised viability (CAL-51 [12])
Cc1cn(-c2cc(NC(=O)c3ccc(C)c(Nc4nccc(-c5cccnc5)n4)c3)cc(C(F)(F)F)c2)cn1 [Nilotinib] (300 nM)	–	–	–	–	–	–	94.6% and 101%	47.2% and 70.8%	90.1% and 113%	92.1% and 86%	94.5% and 91.4%	109% and 112%
C=CCN(/C=C1/C(=O)O[C@H](COC)[C@@]2(C)C1=C(O)C(=O)C1=C2[C@H](OC(C)=O)C[C@]2(C)C(=O)CC[C@@H]12)CC=C [PX-866] (3000 nM)	108%	70.2%	95.4%	102%	114%	107%	–	–	–	–	–	–
COc1c2occc2cc2ccc(=O)oc12 [Methoxsalen] (3000 nM)	91.4%	118%	94.6%	96.2%	114%	112%	–	–	–	–	–	–
COc1ccc(S(=O)(=O)Nc2cccnc2Nc2ccc(O)cc2)cc1 [ABT-751] (3000 nM)	15%	37.8%	17.4%	26.8%	27.7%	19%	–	–	–	–	–	–
CCNC(=O)c1noc(-c2cc(C(C)C)c(O)cc2O)c1-c1ccc(CN2CCOCC2)cc1 [NVP-AUY922] (30 nM)	–	–	–	–	–	–	16%	18%	0.85%	30.5%	9.09%	29.4%
CO[C@@H]1[C@H](N(C)C(=O)c2ccccc2)C[C@H]2O[C@]1(C)n1c3ccccc3c3c4c(c5c6ccccc6n2c5c31)C(=O)NC4 [Midostaurin] (3000 nM)	84.4%	50.5%	3.23%	73.4%	69.6%	6.39%	–	–	–	–	–	–
COc1cc(Nc2c(C#N)cnc3cc(OCCCN4CCN(C)CC4)c(OC)cc23)c(Cl)cc1Cl [Bosutinib] (300 nM)	–	–	–	–	–	–	82.2%	68.5%	99.7%	108%	88.2%	117%
Cc1cn(-c2cc(NC(=O)c3ccc(C)c(Nc4nccc(-c5cccnc5)n4)c3)cc(C(F)(F)F)c2)cn1 [Nilotinib] (3000 nM)	83.9% and 89.2%	67.9% and 66.5%	97.8% and 107%	69.3% and 78.6%	87.6% and 97.1%	108% and 115%	–	–	–	–	–	–
CC(C)(C)NC(=O)[C@H]1CC[C@H]2[C@@H]3CC[C@H]4NC(=O)C=C[C@]4(C)[C@H]3CC[C@]12C [Finasteride] (300 nM)	–	–	–	–	–	–	106%	109%	96.4%	97.8%	112%	105%
CC1(C)CCC(c2ccc(Cl)cc2)=C(CN2CCN(c3ccc(C(=O)NS(=O)(=O)c4ccc(N[C@H](CCN5CCOCC5)CSc5ccccc5)c(S(=O)(=O)C(F)(F)F)c4)cc3)CC2)C1 [Navitoclax] (300 nM)	–	–	–	–	–	–	90.4%	50.2%	47.2%	75.2%	78.1%	99.9%
CCN(CC)CCCC(C)Nc1ccnc2cc(Cl)ccc12 (stereo not given) [Chloroquine] (29.7 nM)	–	–	–	–	–	–	89.9%	123%	116%	92.7%	98.8%	88.5%
COc1ccc(S(=O)(=O)Nc2cccnc2Nc2ccc(O)cc2)cc1 [ABT-751] (300 nM)	–	–	–	–	–	–	98.6%	55.8%	80.7%	58.7%	39.5%	94.3%
C/C(=C\c1csc(C)n1)[C@@H]1C[C@@H]2O[C@]2(C)CCC[C@H](C)[C@H](O)[C@@H](C)C(=O)C(C)(C)[C@@H](O)CC(=O)N1 [Ixabepilone] (300 nM)	87.3%	81.6%	92.9%	76.5%	89.8%	117%	–	–	–	–	–	–
COc1c2occc2cc2ccc(=O)oc12 [Methoxsalen] (300 nM)	–	–	–	–	–	–	114%	88.7%	111%	107%	99.9%	104%
CCN(CC)CCCC(C)Nc1ccnc2cc(Cl)ccc12 (stereo not given) [Chloroquine] (297 nM)	95.9%	118%	85.2%	96%	100%	93.4%	–	–	–	–	–	–
C/C(=C\c1csc(C)n1)[C@@H]1C[C@@H]2O[C@]2(C)CCC[C@H](C)[C@H](O)[C@@H](C)C(=O)C(C)(C)[C@@H](O)CC(=O)N1 [Ixabepilone] (30 nM)	–	–	–	–	–	–	99.2%	71.6%	88.9%	85%	102%	103%
CC[C@H](CO)Nc1nc(NCc2ccccc2)c2ncn(C(C)C)c2n1 [Roscovitine] (3000 nM)	80.4%	91%	114%	82.6%	86.5%	107%	–	–	–	–	–	–
